# Test results published in patent US20230048132A1, “CYCLIN-DEPENDENT KINASE INHIBITORS” (SPV THERAPEUTICS INC., priority 2018, published 2023).
# Where “and” joins values, the source holds several entries; their conditions need not be identical. Equal values may be shown once. Read-outs that look alike come from different tables or passages of the source.
# Legend:
# Test in all cases: CDK inhibition assay (microfluidic LabChip, IC50 format)
# CDK4-CYCLIND1 = CDK4-CYCLIND1 (Homo sapiens, UniProt P11802); conditions: a second value in parentheses for some compounds
# Experimental: Inhibition assays were performed using microfluidic LabChip 300 Drug Discovery System from Caliper Life Sciences. […] The assay has a total volume of 10 μL consisting of 5 μL of enzyme and buffer and 5 μL of substrate and buffer. The test compounds were diluted in 100% dimethylsulfoxide (DMSO) using 3-fold dilution steps. […] Compounds were tested in a single well for each dilution and the final concentration of DMSO was maintained at 1%.
# The assay buffer contained 100 mM HEPES, pH 7.5, 0.01% Triton X-100, 0.1% bovine serum albumin (BSA), 5 mM MgCl2; 1 mM dithiothreitol (DTT), 10 μM sodium orthovanadate, and 10 μM β-glycerophosphate.
# The assay was conducted by adding 5 μL of enzyme, adenosine triphosphate (ATP) and buffer to an assay plate. A 100 nL aliquot of the diluted compounds were added to the plate. The assay was initiated by the addition of 5 μL of phosphoenolpyruvate substrate (PEP) in buffer. […] The reaction was terminated by the addition of EDTA. The plates were analyzed using a Caliper LabChip 3000.
# Additional inhibition assays were performed as described above.
# The assays were conducted as described above for the racemates.
# CDK2-CYCLINA = target: T1, CDK2-CYCLINA (Homo sapiens, UniProt P24941); format: biochemical; conditions: read-out: CDK2 CyclinA IC50
# T1 construct: purchased Millipore
# CDK9-CYCLINT1 = target: T2, CDK9-CYCLINT1 (Homo sapiens, UniProt P50750); format: biochemical; conditions: read-out: CDK9 CyclinT1 IC50
# T2 construct: purchased Carna
# CDK7 CyclinH = CDK7 CyclinH (Homo sapiens, UniProt P50613); format: biochemical
# CDK6-CYCLIND3 = target: T3, CDK6-CYCLIND3 (Homo sapiens, UniProt Q00534); format: biochemical; conditions: read-out: CDK6 CyclinD3 IC50
# T3 construct: purchased Carna
# [1] = CDK4 CyclinD1 IC50, Table 4b, lower part
# Sequence of CDK4-CYCLIND1 (P11802 whole entry): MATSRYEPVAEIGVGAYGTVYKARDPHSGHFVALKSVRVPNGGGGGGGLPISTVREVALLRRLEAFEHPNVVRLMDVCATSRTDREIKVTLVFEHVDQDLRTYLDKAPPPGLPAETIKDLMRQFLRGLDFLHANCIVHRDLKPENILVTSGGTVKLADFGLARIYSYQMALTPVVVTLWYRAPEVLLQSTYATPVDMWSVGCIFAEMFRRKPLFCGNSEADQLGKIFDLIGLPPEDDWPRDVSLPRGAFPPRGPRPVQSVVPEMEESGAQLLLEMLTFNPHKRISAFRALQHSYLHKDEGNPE
# Sequence of CDK4-CYCLIND1 (P24385 whole entry partner): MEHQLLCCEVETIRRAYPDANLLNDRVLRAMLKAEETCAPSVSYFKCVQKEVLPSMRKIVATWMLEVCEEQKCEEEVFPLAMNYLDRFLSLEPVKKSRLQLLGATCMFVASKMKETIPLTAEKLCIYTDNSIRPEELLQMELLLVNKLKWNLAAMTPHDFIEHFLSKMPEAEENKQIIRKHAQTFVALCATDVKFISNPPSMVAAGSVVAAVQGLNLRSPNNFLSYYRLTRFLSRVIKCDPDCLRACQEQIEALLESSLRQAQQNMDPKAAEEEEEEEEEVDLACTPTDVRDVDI
# T2 sequence (P50750 whole entry): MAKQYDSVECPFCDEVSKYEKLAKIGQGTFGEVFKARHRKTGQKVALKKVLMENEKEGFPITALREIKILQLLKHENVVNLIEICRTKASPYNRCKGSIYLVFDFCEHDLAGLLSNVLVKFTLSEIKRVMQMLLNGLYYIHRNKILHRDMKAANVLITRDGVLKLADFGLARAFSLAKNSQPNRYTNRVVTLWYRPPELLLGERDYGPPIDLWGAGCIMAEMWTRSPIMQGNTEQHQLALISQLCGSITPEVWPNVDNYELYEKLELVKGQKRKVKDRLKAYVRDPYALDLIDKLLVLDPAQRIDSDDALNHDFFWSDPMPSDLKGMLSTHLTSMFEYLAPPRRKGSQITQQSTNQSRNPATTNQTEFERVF
# T2 sequence (O60563 whole entry partner): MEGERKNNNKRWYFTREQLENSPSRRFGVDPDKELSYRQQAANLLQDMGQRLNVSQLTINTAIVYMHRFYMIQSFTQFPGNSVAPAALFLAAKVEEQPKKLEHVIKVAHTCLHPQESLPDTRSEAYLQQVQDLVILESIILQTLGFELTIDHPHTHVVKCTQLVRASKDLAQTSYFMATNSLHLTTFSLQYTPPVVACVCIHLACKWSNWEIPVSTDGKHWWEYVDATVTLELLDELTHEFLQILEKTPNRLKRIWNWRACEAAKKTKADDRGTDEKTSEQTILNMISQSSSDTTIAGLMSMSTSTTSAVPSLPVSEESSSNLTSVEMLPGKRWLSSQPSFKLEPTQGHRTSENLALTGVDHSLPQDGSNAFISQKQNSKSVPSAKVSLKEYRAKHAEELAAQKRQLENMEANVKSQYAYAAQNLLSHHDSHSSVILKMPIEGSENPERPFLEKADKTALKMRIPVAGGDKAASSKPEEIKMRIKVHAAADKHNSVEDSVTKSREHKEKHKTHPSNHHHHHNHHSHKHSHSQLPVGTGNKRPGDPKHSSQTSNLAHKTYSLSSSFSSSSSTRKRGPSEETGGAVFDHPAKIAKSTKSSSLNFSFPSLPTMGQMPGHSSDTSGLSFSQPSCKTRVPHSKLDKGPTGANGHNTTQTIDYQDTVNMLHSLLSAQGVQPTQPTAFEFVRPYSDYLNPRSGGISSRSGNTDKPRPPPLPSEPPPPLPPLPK
# T3 sequence (Q00534 whole entry): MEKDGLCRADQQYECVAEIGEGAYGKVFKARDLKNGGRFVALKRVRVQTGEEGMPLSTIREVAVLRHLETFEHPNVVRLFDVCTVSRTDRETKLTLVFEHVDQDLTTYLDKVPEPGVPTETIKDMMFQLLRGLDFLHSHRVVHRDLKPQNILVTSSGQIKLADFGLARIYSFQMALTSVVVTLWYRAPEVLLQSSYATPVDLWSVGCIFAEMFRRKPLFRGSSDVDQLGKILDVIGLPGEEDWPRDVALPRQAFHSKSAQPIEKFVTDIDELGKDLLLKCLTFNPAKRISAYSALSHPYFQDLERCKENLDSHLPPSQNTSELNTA
# T3 sequence (P30281 whole entry partner): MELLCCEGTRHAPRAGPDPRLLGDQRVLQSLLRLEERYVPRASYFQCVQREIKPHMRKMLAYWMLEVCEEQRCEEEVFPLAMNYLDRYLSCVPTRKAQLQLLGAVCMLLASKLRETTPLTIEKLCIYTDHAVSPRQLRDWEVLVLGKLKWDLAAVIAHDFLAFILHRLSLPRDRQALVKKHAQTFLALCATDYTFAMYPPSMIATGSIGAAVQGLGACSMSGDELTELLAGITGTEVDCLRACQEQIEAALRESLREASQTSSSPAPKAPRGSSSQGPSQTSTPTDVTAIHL
# Sequence of CDK7 CyclinH (P50613 whole entry): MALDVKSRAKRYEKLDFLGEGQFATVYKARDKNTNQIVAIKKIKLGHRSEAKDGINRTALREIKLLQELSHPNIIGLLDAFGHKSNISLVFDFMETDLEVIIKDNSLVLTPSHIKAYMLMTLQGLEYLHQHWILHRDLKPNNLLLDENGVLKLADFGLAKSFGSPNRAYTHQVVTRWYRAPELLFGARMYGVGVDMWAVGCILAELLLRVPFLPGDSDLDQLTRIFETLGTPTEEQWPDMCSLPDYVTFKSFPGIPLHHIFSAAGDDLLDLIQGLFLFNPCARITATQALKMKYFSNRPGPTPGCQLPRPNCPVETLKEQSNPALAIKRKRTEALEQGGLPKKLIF
# Sequence of CDK7 CyclinH (P51946 whole entry partner): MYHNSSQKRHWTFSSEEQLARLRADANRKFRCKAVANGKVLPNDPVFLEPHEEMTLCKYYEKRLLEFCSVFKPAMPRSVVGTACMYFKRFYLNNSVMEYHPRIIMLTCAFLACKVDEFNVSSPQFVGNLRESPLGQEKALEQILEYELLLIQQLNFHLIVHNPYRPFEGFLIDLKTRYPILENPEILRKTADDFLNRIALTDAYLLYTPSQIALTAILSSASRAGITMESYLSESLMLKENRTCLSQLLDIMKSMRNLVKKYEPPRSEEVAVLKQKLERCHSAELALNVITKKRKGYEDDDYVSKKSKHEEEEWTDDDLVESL
# Sequence of CDK7 CyclinH (P51948 whole entry partner): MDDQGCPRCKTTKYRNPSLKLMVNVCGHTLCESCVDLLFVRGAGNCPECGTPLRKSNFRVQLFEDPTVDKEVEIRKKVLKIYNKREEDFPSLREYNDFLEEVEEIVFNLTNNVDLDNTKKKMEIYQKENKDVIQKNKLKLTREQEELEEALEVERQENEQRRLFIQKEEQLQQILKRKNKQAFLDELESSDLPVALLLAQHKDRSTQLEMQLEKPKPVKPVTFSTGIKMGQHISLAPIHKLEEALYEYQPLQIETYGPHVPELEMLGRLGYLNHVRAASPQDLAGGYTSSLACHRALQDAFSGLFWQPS
Structure (SMILES),"IC50 (CDK4-CYCLIND1; CDK4 CyclinD1 IC50, Table 4a)",IC50 (CDK2-CYCLINA; Table 4a) [nM],IC50 (CDK9-CYCLINT1; Table 4a) [nM],IC50 (CDK7 CyclinH; Table 4a) [nM],IC50 (CDK6-CYCLIND3; Table 4a) [nM],IC50 (CDK4-CYCLIND1; [1]) [nM],"IC50 (CDK2-CYCLINA; Table 4b, lower part) [nM]","IC50 (CDK9-CYCLINT1; Table 4b, lower part) [nM]","IC50 (CDK7 CyclinH; Table 4b, lower part) [nM]","IC50 (CDK6-CYCLIND3; Table 4b, lower part) [nM]"
"O=C1NCC[C@@]12Cc1cnc(Nc3ccc(N4CCC(N5CCOCC5)CC4)cc3)nc1N(C1CCCC1)C2=O [Example D182, (S)-8-cyclopentyl-2-((4-(4-morpholinopiperidin-1-yl)phenyl)amino)-5,8-dihydro-7H-spiro[pyrido[2,3-d]pyrimidine-6,3′-pyrrolidine]-2′,7-dione]",,,,,,< 0.56,115,16.2,591,< 0.56
"CN(C)[C@@H]1CCN(c2ccc(Nc3ncc4c(n3)N(C3CCCC3)C(=O)[C@]3(CCNC3=O)C4)cn2)C1 [Example D175, (S)-8-cyclopentyl-2-((6-((R)-3-(dimethylamino)pyrrolidin-1-yl)pyridin-3-yl)amino)-5,8-dihydro-7H-spiro[pyrido[2,3-d]pyrimidine-6,3′-pyrrolidine]-2′,7-dione]",1.56 nM and 0.83 nM,57.1,3.62,465,2.6,,,,,
"CN(C)[C@H]1CCN(c2ccc(Nc3ncc4c(n3)N(C3CCCC3)C(=O)[C@]3(CCNC3=O)C4)cc2)C1 [Example D174, (S)-8-cyclopentyl-2-((4-((S)-3-(dimethylamino)pyrrolidin-1-yl)phenyl)amino)-5,8-dihydro-7H-spiro[pyrido[2,3-d]pyrimidine-6,3′-pyrrolidine]-2′,7-dione]",1.52 nM,60.9,6.93,505,3.16,,,,,
"O=C1NCC[C@@]12Cc1cnc(Nc3ccc(N4CCC(N5CCOCC5)CC4)cn3)nc1N(C1CCCC1)C2=O [Example D181, (S)-8-cyclopentyl-2-((5-(4-morpholinopiperidin-1-yl)pyridin-2-yl)amino)-5,8-dihydro-7H-spiro[pyrido[2,3-d]pyrimidine-6,3′-pyrrolidine]-2′,7-dione]",,,,,,4.3,5820,818,40900,6.79
"CN(C)[C@H]1CCN(C(=O)c2ccc(Nc3ncc4c(n3)N(C3CCCC3)C(=O)[C@]3(CCNC3=O)C4)cc2)C1 [Example D177, (S)-8-cyclopentyl-2-((4-((S)-3-(dimethylamino)pyrrolidine-1-carbonyl)phenyl)amino)-5,8-dihydro-7H-spiro[pyrido[2,3-d]pyrimidine-6,3′-pyrrolidine]-2′,7-dione]",4.72 nM,50,19.1,2940,13.9,,,,,
"CC(C)N1CCN(c2ccc(Nc3ncc4c(n3)N(C35CC(C3)C5)C(=O)[C@]3(CCNC3=O)C4)cc2)CC1 [Example D187, (S)-8-(bicyclo[1.1.1]pentan-1-yl)-2-((4-(4-isopropylpiperazin-1-yl)phenyl)amino)-5,8-dihydro-7H-spiro[pyrido[2,3-d]pyrimidine-6,3′-pyrrolidine]-2′,7-dione]",,,,,,14.5,1370,60.7,1680,33.6
"CN1CCN(c2ccc(Nc3ncc4c(n3)N(C35CC(C3)C5)C(=O)[C@]3(CCNC3=O)C4)cc2)CC1 [Example D186, (S)-8-(bicyclo[1.1.1]pentan-1-yl)-2-((4-(4-methylpiperazin-1-yl)phenyl)amino)-5,8-dihydro-7H-spiro[pyrido[2,3-d]pyrimidine-6,3′-pyrrolidine]-2′,7-dione]",,,,,,13.9,1490,61.5,2320,38.7
"CCN1CCN(Cc2ccc(Nc3ncc4c(n3)N(C35CC(C3)C5)C(=O)[C@]3(CCNC3=O)C4)nc2)CC1 [Example D190, (S)-8-(bicyclo[1.1.1]pentan-1-yl)-2-((5-((4-ethylpiperazin-1-yl)methyl)pyridin-2-yl)amino)-5,8-dihydro-7H-spiro[pyrido[2,3-d]pyrimidine-6,3′-pyrrolidine]-2′,7-dione]",,,,,,11400,> 100000,21800,> 100000,34200
"CC(C)N1CCN(c2ccc(Nc3ncc4c(n3)N(C35CC(C3)C5)C(=O)[C@]3(CCNC3=O)C4)nc2)CC1 [Example D189, (S)-8-(bicyclo[1.1.1]pentan-1-yl)-2-((5-(4-isopropylpiperazin-1-yl)pyridin-2-yl)amino)-5,8-dihydro-7H-spiro[pyrido[2,3-d]pyrimidine-6,3′-pyrrolidine]-2′,7-dione]",,,,,,28700,> 100000,17700,> 100000,41600

# The next lines start with the values.
"IC50 (CDK4-CYCLIND1; CDK4 CyclinD1 IC50, Table 4a)",IC50 (CDK2-CYCLINA; Table 4a) [nM],IC50 (CDK9-CYCLINT1; Table 4a) [nM],IC50 (CDK7 CyclinH; Table 4a) [nM],IC50 (CDK6-CYCLIND3; Table 4a) [nM],IC50 (CDK4-CYCLIND1; [1]) [nM],"IC50 (CDK2-CYCLINA; Table 4b, lower part) [nM]","IC50 (CDK9-CYCLINT1; Table 4b, lower part) [nM]","IC50 (CDK7 CyclinH; Table 4b, lower part) [nM]","IC50 (CDK6-CYCLIND3; Table 4b, lower part) [nM]",Structure (SMILES)
1.62 nM,35,7.34,318,4.47,,,,,,"COc1cc(Nc2ncc3c(n2)N(C2CCCC2)C(=O)[C@]2(CCNC2=O)C3)ccc1N1CCNCC1 [Example D159, (S)-8-cyclopentyl-2-((3-methoxy-4-(piperazin-1-yl)phenyl)amino)-5,8-dihydro-7H-spiro[pyrido[2,3-d]pyrimidine-6,3′-pyrrolidine]-2′,7-dione]"
1.16 nM,52.9,6.86,402,2.34,,,,,,"CN1CCN(c2ccc(Nc3ncc4c(n3)N(C3CCCC3)C(=O)[C@]3(CCNC3=O)C4)cn2)CC1 [Example D150, (S)-8-cyclopentyl-2-((6-(4-methylpiperazin-1-yl)pyridin-3-yl)amino)-5,8-dihydro-7H-spiro[pyrido[2,3-d]pyrimidine-6,3′-pyrrolidine]-2′,7-dione]"
,,,,,22.9,2430,76.8,2340,66.2,"CN1CCN(c2ccc(Nc3ncc4c(n3)N(C35CC(C3)C5)C(=O)C3(CCNC3=O)C4)cc2F)CC1 (stereo not shown) [Example D183, 8-(bicyclo[1.1.1]pentan-1-yl)-2-((3-fluoro-4-(4-methylpiperazin-1-yl)phenyl)amino)-5,8-dihydro-7H-spiro[pyrido[2,3-d]pyrimidine-6,3′-pyrrolidine]-2′,7-dione]"
1.79 nM,98.7,2.84,266,4.35,,,,,,"O=C1NCC[C@@]12Cc1cnc(Nc3ccc(OCCN4CCCC4)c(F)c3)nc1N(C1CCCC1)C2=O [Example D180, (S)-8-cyclopentyl-2-((3-fluoro-4-(2-(pyrrolidin-1-yl)ethoxy)phenyl)amino)-5,8-dihydro-7H-spiro[pyrido[2,3-d]pyrimidine-6,3′-pyrrolidine]-2′,7-dione]"
0.908 nM,18.3,3.67,164,1.51,,,,,,"Cc1cc(Nc2ncc3c(n2)N(C2CCCC2)C(=O)[C@]2(CCNC2=O)C3)ccc1N1CCN(C)CC1 [Example D157, (S)-8-cyclopentyl-2-((3-methyl-4-(4-methylpiperazin-1-yl)phenyl)amino)-5,8-dihydro-7H-spiro[pyrido[2,3-d]pyrimidine-6,3′-pyrrolidine]-2′,7-dione]"
1.18 nM,1710,120,19000,1.64,,,,,,"O=C1NCC[C@@]12Cc1cnc(Nc3ccc(N4CCNCC4)cn3)nc1N(C1CCCC1)C2=O [Example D152, (S)-8-cyclopentyl-2-((5-(piperazin-1-yl)pyridin-2-yl)amino)-5,8-dihydro-7H-spiro[pyrido[2,3-d]pyrimidine-6,3′-pyrrolidine]-2′,7-dione]"
2.94 nM,2440,316,18400,3.62,,,,,,"CN1CCN(c2ccc(Nc3ncc4c(n3)N(C3CCCC3)C(=O)[C@]3(CCNC3=O)C4)nc2)CC1 [Example D153, (S)-8-cyclopentyl-2-((5-(4-methylpiperazin-1-yl)pyridin-2-yl)amino)-5,8-dihydro-7H-spiro[pyrido[2,3-d]pyrimidine-6,3′-pyrrolidine]-2′,7-dione]"
0.92 nM,19.8,3.91,166,2.3,,,,,,"Cc1cc(Nc2ncc3c(n2)N(C2CCCC2)C(=O)[C@]2(CCNC2=O)C3)ccc1N1CCNCC1 [Example D156, (S)-8-cyclopentyl-2-((3-methyl-4-(piperazin-1-yl)phenyl)amino)-5,8-dihydro-7H-spiro[pyrido[2,3-d]pyrimidine-6,3′-pyrrolidine]-2′,7-dione]"
73.2 nM,951,518,4260,188,,,,,,"CN1CCN(c2ccc(Nc3ncc4c(n3)N(C3CCCC3)C(=O)[C@]3(CCNC3=O)C4)c(F)c2)CC1 [Example D147, (S)-8-cyclopentyl-2-((2-fluoro-4-(4-methylpiperazin-1-yl)phenyl)amino)-5,8-dihydro-7H-spiro[pyrido[2,3-d]pyrimidine-6,3′-pyrrolidine]-2′,7-dione]"
1.2 nM,33.5,6.41,157,3.41,,,,,,"COc1cc(Nc2ncc3c(n2)N(C2CCCC2)C(=O)[C@]2(CCNC2=O)C3)ccc1N1CCN(C)CC1 [Example D160, (S)-8-cyclopentyl-2-((3-methoxy-4-(4-methylpiperazin-1-yl)phenyl)amino)-5,8-dihydro-7H-spiro[pyrido[2,3-d]pyrimidine-6,3′-pyrrolidine]-2′,7-dione]"
29.2 nM,775,236,7300,58.5,,,,,,"COc1cc(N2CCNCC2)ccc1Nc1ncc2c(n1)N(C1CCCC1)C(=O)[C@]1(CCNC1=O)C2 [Example D165, (S)-8-cyclopentyl-2-((2-methoxy-4-(piperazin-1-yl)phenyl)amino)-5,8-dihydro-7H-spiro[pyrido[2,3-d]pyrimidine-6,3′-pyrrolidine]-2′,7-dione]"
